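Grown in 96-well plates, cells were treated for 48 hours with each compound at five concentrations. Insufficient inhibition: endpoint recorded as highest concentration tested. GI50 marks 50% less growth.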 The source made the active and inactive calls. Cut-off read from the data, not from the text of the source: active = GI50 up to about 1.1 µM and inactive = higher.
What was measured:
Experiment in all cases: inhibition of tumour cell growth, NCI panel, 48 h
SF-295 = test system: SF-295
SF-268 = test system: SF-268
EKVX = test system: EKVX
DMS-273 = test system: DMS-273
Malme-3M = test system: Malme-3M
OVCAR-3 = test system: OVCAR-3
SNB-19 = test system: SNB-19
COLO 205 = test system: COLO 205
HCC 2998 = test system: HCC 2998
SK-OV-3 = test system: SK-OV-3
LOX IMVI = test system: LOX IMVI
SR = test system: SR
SF-539 = test system: SF-539
HOP-62 = test system: HOP-62
NCI-H226 = test system: NCI-H226
OVCAR-8 = test system: OVCAR-8
TK-10 = test system: TK-10
MOLT-4 = test system: MOLT-4
HCT-15 = test system: HCT-15
HCT-116 = test system: HCT-116
SK-MEL-5 = test system: SK-MEL-5
ACHN = test system: ACHN
A549 = test system: A549
SN12C = test system: SN12C
RXF 631 = test system: RXF 631
NCI-H522 = test system: NCI-H522
LXFL 529 = test system: LXFL 529
K562 = test system: K562
DLD-1 = test system: DLD-1
M19-MEL = test system: M19-MEL
SK-MEL-2 = test system: SK-MEL-2
SK-MEL-28 = test system: SK-MEL-28
OVCAR-5 = test system: OVCAR-5
UACC-62 = test system: UACC-62
KM-20L2 = test system: KM-20L2
KM12 = test system: KM12
HOP-92 = test system: HOP-92
UO-31 = test system: UO-31
RPMI-8226 = test system: RPMI-8226
RXF 393 = test system: RXF 393
SW-620 = test system: SW-620
IGROV-1 = test system: IGROV-1
OVCAR-4 = test system: OVCAR-4
CAKI-1 = test system: CAKI-1

With `Cc1ccc(NC(=O)CC(=O)n2nc(-c3ccccc3)c(/N=N/c3ccccc3C(=O)O)c2-c2ccccc2)cc1` the GI50 (SF-295) was > 100 µM (inactive), the GI50 (SF-268) was > 100 µM (inactive) and the GI50 (EKVX) was 1.91 µM (inactive). The GI50 (DMS-273) was > 100 µM (inactive), the GI50 (Malme-3M) was > 100 µM (inactive) and the GI50 (OVCAR-3) was > 100 µM (inactive). For the same compound, the GI50 (SNB-19) was > 100 µM (inactive), the GI50 (COLO 205) was > 100 µM (inactive) and the GI50 (HCC 2998) was 66.2 µM (inactive). For the same compound, the GI50 (SK-OV-3) was > 100 µM (inactive), the GI50 (LOX IMVI) was > 100 µM (inactive) and the GI50 (SR) was > 100 µM (inactive). The GI50 (SF-539) was > 100 µM (inactive), the GI50 (HOP-62) was > 100 µM (inactive) and the GI50 (NCI-H226) was > 100 µM (inactive). The GI50 (OVCAR-8) was > 100 µM (inactive), the GI50 (TK-10) was 38.6 µM (inactive) and the GI50 (MOLT-4) was 4.4 µM (inactive). For the same compound, the GI50 (HCT-15) was over 100 µM, the GI50 (HCT-116) was > 100 µM (inactive) and the GI50 (SK-MEL-5) was > 100 µM (inactive). For the same compound, the GI50 (ACHN) was 51.5 µM (inactive), the GI50 (A549) was > 100 µM (inactive) and the GI50 (SN12C) was > 100 µM (inactive). For the same compound, the GI50 (RXF 631) was > 100 µM (inactive), the GI50 (NCI-H522) was > 100 µM (inactive) and the GI50 (LXFL 529) was > 100 µM (inactive). For the same compound, the GI50 (K562) was > 100 µM (inactive), the GI50 (DLD-1) was 39.3 µM (inactive) and the GI50 (M19-MEL) was > 100 µM (inactive). For the same compound, the GI50 (SK-MEL-2) was > 100 µM (inactive), the GI50 (SK-MEL-28) was > 100 µM (inactive) and the GI50 (OVCAR-5) was > 100 µM (inactive). The GI50 (UACC-62) was > 100 µM (inactive), the GI50 (KM-20L2) was 84.7 µM (inactive) and the GI50 (KM12) was > 100 µM (inactive). For the same compound, the GI50 (HOP-92) was > 100 µM (inactive), the GI50 (UO-31) was 28.8 µM (inactive) and the GI50 (RPMI-8226) was > 100 µM (inactive). For the same compound, the GI50 (RXF 393) was > 100 µM (inactive), the GI50 (SW-620) was > 100 µM (inactive) and the GI50 (IGROV-1) was > 100 µM (inactive). For the same compound, the GI50 (OVCAR-4) was > 100 µM (inactive) and the GI50 (CAKI-1) was > 100 µM (inactive).

— ChEMBL document CHEMBL1201862, “PubChem BioAssay data set” (2004)
